For orientation: IC50 means the concentration at which inhibition is half-maximal. Lower therefore signals higher potency.

The target of the first experiment is Cyclin-dependent kinase 5 (Homo sapiens, UniProt Q00535). In words: Inhibition of CDK5.
Sequence of Cyclin-dependent kinase 5 (Q00535 whole entry): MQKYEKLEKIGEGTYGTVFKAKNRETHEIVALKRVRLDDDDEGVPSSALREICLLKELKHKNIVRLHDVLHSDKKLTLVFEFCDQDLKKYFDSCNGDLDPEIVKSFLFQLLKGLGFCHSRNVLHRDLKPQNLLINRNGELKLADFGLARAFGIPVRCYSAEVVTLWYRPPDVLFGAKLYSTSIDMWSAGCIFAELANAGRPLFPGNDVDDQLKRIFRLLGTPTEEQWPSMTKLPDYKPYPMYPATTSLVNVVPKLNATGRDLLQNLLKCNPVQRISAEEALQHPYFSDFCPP
On to `COc1ccc(-c2coc3c2-n2cccc2C3=O)cc1OC`, for which the IC50 is above 50 µM.
Same read-out and setting: in the case of `COc1ccc(-c2c[nH]c3c2-n2cccc2C3=O)cc1OC` it was above 50 µM; in that of `COc1ccc(-c2c[nH]c3c2-n2cccc2/C3=N/O)cc1O`, 3.2 µM.
On the same count and under the same terms, next, `COc1ccc(-c2c[nH]c3[nH]c(=O)c4cccn4c23)cc1OC`: above 50 µM; `O=C1c2[nH]cc(-c3ccc(Cl)cc3)c2-n2cccc21`: above 50 µM; `COc1ccc(-c2c[nH]c3c2-n2cccc2/C3=N/O)cc1OCc1ccccc1`: 14 µM.
`O=c1[nH]c2occ(-c3ccc(Br)cc3)c2n2cccc12` showed a concentration for half-maximal inhibition (IC50) above 50 µM.
The same measure, in the same setting: next, `COc1ccc(-c2coc3[nH]c(=O)c4cccn4c23)cc1`: above 50 µM; `O=c1[nH]c2occ(-c3ccc(Cl)c(Cl)c3)c2n2cccc12`: above 50 µM.
`COc1ccc(-c2coc3[nH]c(=O)c4cccn4c23)cc1OC` registered an IC50 above 50 µM.
On to `COc1ccc(-c2c[nH]c3c2-n2cccc2C3=O)cc1OCc1ccccc1`, for which the half-inhibitory concentration (IC50) is above 50 µM.
In turn, `O=c1[nH]c2[nH]cc(-c3ccc(Cl)cc3)c2n2cccc12` showed an IC50 above 50 µM.
Still for that read-out and setting: next, `Cc1ccc(-c2coc3[nH]c(=O)c4cccn4c23)cc1`: above 50 µM.
Turning to `O=c1[nH]c2occ(-c3ccc(F)cc3)c2n2cccc12`, the IC50 is above 50 µM.
Same read-out and setting: in the case of `COc1ccc(-c2c[nH]c3c2-n2cccc2C3=O)cc1O` it was 30 µM.

In the next experiment the target is Glycogen synthase kinase-3 beta (Homo sapiens, UniProt P49841). Kind of experiment: Inhibition of GSK3-beta.
Sequence of Glycogen synthase kinase-3 beta (P49841 whole entry): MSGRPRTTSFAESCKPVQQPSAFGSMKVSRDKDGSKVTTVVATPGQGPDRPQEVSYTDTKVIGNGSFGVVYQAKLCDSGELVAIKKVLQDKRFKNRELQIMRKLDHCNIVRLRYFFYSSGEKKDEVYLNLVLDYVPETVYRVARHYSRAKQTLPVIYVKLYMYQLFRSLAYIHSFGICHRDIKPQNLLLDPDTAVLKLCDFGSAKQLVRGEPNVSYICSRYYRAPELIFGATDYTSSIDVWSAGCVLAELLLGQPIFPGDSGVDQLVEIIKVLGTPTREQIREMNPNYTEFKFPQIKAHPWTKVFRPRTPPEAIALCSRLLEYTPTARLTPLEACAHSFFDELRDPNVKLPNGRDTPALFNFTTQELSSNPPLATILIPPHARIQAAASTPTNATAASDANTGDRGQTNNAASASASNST
Turning to `COc1ccc(-c2coc3c2-n2cccc2C3=O)cc1OC`, the IC50 is above 50 µM.
`COc1ccc(-c2csc3c2-n2cccc2C3=O)cc1OCc1ccccc1` came in with an IC50 above 50 µM.
For the molecule `COc1ccc(-c2c[nH]c3c2-n2cccc2C3=O)cc1OC`, the IC50 was above 50 µM.
In turn, `COc1ccc(-c2c[nH]c3c2-n2cccc2/C3=N/O)cc1O` returned an IC50 of 5.5 µM.
Molecule `COc1ccc(-c2c[nH]c3[nH]c(=O)c4cccn4c23)cc1OC` returned an IC50 above 50 µM.
With `O=C1c2[nH]cc(-c3ccc(Cl)cc3)c2-n2cccc21`, the IC50 was above 50 µM.
Take `COc1ccc(-c2c[nH]c3c2-n2cccc2/C3=N/O)cc1OCc1ccccc1`: half-maximal inhibition (IC50) was put at 17 µM.
In turn, `O=c1[nH]c2occ(-c3ccc(Br)cc3)c2n2cccc12` returned an IC50 above 50 µM.
In turn, `COc1ccc(-c2coc3[nH]c(=O)c4cccn4c23)cc1` returned an IC50 above 50 µM.
`O=c1[nH]c2occ(-c3ccc(Cl)c(Cl)c3)c2n2cccc12`: the IC50 was above 50 µM.
In the case of `COc1ccc(-c2coc3[nH]c(=O)c4cccn4c23)cc1OC`, the concentration for half-maximal inhibition (IC50) is above 50 µM.
On the same count and under the same terms, in the case of `COc1ccc(-c2c[nH]c3c2-n2cccc2C3=O)cc1OCc1ccccc1` it was above 50 µM; in that of `O=c1[nH]c2[nH]cc(-c3ccc(Cl)cc3)c2n2cccc12`, above 50 µM; in that of `Cc1ccc(-c2coc3[nH]c(=O)c4cccn4c23)cc1`, above 50 µM.
Turning to `O=c1[nH]c2occ(-c3ccc(F)cc3)c2n2cccc12`, the IC50 is above 50 µM.
The same measure, in the same setting: next, `COc1ccc(-c2c[nH]c3c2-n2cccc2C3=O)cc1O`: 11 µM.

System in the next experiment: not listed separately
In words: Inhibition of tubulin polymerization.
In turn, `COc1ccc(-c2csc3c2-n2cccc2C3=O)cc1O` yielded an IC50 of 2.9 µM.

The target of the next experiment is Cyclin-dependent kinase 1/cyclin B1 (Homo sapiens, UniProt P06493). In words: Inhibition of CDK1/cyclin B. It is filed as protein-complex assay.
Sequence of Cyclin-dependent kinase 1/cyclin B1 (P06493 whole entry): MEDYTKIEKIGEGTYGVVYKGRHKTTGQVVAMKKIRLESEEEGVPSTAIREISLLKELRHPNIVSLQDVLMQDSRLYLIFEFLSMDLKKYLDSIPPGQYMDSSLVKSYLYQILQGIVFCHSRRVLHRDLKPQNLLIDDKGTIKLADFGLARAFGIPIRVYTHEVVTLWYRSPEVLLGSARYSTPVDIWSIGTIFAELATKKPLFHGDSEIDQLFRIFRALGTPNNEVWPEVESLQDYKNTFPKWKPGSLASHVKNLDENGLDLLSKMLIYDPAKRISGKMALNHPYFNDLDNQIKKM
Sequence of Cyclin-dependent kinase 1/cyclin B1 (P14635 whole entry, further chain): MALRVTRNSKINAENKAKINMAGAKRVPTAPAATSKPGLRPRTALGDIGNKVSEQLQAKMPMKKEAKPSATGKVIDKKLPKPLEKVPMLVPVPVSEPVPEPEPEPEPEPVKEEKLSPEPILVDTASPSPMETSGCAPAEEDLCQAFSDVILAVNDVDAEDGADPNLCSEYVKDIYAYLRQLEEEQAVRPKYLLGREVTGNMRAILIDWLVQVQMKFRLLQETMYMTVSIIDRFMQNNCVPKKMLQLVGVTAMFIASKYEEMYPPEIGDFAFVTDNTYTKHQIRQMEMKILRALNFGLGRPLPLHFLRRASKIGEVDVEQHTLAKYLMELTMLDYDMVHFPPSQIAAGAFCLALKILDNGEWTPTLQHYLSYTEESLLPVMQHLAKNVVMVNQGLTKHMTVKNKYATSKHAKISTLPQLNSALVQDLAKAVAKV
On to `COc1ccc(-c2coc3c2-n2cccc2C3=O)cc1OC`, for which the IC50 is above 50 µM.
Molecule `COc1ccc(-c2csc3c2-n2cccc2C3=O)cc1O` showed an IC50 of 5.5 µM.
`COc1ccc(-c2csc3c2-n2cccc2C3=O)cc1OCc1ccccc1` showed an IC50 above 50 µM.
The same measure, in the same setting: next, `COc1ccc(-c2c[nH]c3c2-n2cccc2/C3=N/O)cc1O`: 3.8 µM.
As to `O=C1c2[nH]cc(-c3ccc(Cl)cc3)c2-n2cccc21`, the IC50 was above 50 µM.
The molecule `COc1ccc(-c2c[nH]c3c2-n2cccc2/C3=N/O)cc1OCc1ccccc1` had a half-inhibitory concentration (IC50) of 9 µM.
Turning to `COc1ccc(-c2c[nH]c3c2-n2cccc2C3=O)cc1OCc1ccccc1`, the IC50 is above 50 µM.
The molecule `COc1ccc(-c2c[nH]c3c2-n2cccc2C3=O)cc1O` had an IC50 of 22 µM.

The values above are taken from ChEMBL document CHEMBL1153875, “Synthesis of new dipyrrolo- and furopyrrolopyrazinones related to tripentones and their biological evaluation as potential kinases (CDKs1-5, GSK-3) inhibitors” (Eur J Med Chem, 2009).
